Read-outs that look alike come from different tables or passages of the source.

The test addresses PD-1/PD-L1 interaction (PD-1-Ig / PD-L1-His) (Homo sapiens (Human), UniProt Q9NZQ7). Nature of the test: PD-1/PD-L1 Homogenous Time-Resolved Fluorescence (HTRF) binding assay. As to conditions: PD-1/PD-L1 HTRF binding assay, read-out: Range or IC50. The procedure, abridged: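 HTRF detection used 1 nM europium-cryptate anti-Ig and 20 nM APC anti-His. Compounds first saw 10 nM PD-L1-His for 15 min, and 20 nM PD-1-Ig was then added for another 15 min. Buffer was dPBS plus 0.1% BSA and 0.05% Tween-20. All concentrations are final.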

Chain of PD-1/PD-L1 interaction (PD-1-Ig / PD-L1-His) (Q9NZQ7 other isoform, or with tags, fused parts or gaps): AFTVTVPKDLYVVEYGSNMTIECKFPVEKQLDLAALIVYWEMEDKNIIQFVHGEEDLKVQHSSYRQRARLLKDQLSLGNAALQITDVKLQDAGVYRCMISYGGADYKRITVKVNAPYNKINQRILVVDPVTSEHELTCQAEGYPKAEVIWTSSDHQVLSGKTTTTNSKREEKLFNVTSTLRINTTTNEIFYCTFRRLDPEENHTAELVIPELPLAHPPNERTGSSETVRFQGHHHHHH

Take `CC(=O)NCCNCc1ccc(OCc2cccc(-c3ccccc3)c2C)cc1OCc1cc(C(F)(F)F)ccc1F` [Example 1080, N-(2-((2-((2-fluoro-5-(trifluoromethyl)benzyl)oxy)-4-((2-methyl-[1,1′-biphenyl]-3-yl)methoxy)benzyl)amino)ethyl)acetamide]: the IC50 (value given as range class) lay within 0.1 to 20 µM.

In the case of `COc1ccccc1COc1cc(OCc2cccc(-c3ccc4c(c3)OCCO4)c2C)c(Cl)cc1CN1CCCC[C@H]1C(=O)O` [Example 3029, (S)-1-(5-chloro-4-((3-(2,3-dihydrobenzo[b][1,4]dioxin-6-yl)-2-methylbenzyl)oxy)-2-((2-methoxybenzyl)oxy)benzyl)piperidine-2-carboxylic acid], the IC50 (μM) was determined as 2.35 µM.

For `Cc1c(COc2cc(OCc3cncc(C#N)c3)c(CN[C@](C)(CO)C(=O)O)cc2Cl)cccc1-c1ccc2c(c1)OCCO2` [Example 1248, (R)-2-((5-chloro-2-((5-cyanopyridin-3-yl)methoxy)-4-((3-(2,3-dihydrobenzo[b][1,4]dioxin-6-yl)-2-methylbenzyl)oxy)benzyl)amino)-3-hydroxy-2-methylpropanoic acid], the IC50 (value given as range class) fell in the range of 0.0006 to 0.01 µM.

In the case of `Cc1c(COc2cc(OCc3cccc(C#N)c3)c(CN(C)[C@@H](CC(=O)O)C(=O)O)cc2Cl)cccc1-c1ccc2c(c1)OCCO2` [Example 1203, (S)-2-((5-chloro-2-((3-cyanobenzyl)oxy)-4-((3-(2,3-dihydrobenzo[b][1,4]dioxin-6-yl)-2-methylbenzyl)oxy)benzyl)(methyl)amino)succinic acid], under “value given as range class”, the IC50 lay within 0.0006 to 0.01 µM.

With `Cc1c(COc2cc(OCc3cccc(C#N)c3)c(CN3CC[C@H](O)[C@H]3C(=O)O)cc2Cl)cccc1-c1ccc2c(c1)OCCO2` [Example 1219, (2S,3S)-1-(5-chloro-2-((3-cyanobenzyl)oxy)-4-((3-(2,3-dihydrobenzo[b][1,4]dioxin-6-yl)-2-methylbenzyl)oxy)benzyl)-3-hydroxypyrrolidine-2-carboxylic acid], the IC50 (value given as range class) was 0.0006 to 0.01 µM.

In the case of `CC(=O)NCCNCc1ccc(OCc2cccc(-c3ccccc3)c2C)cc1OCc1noc(C)n1` [Example 1104, N-(2-((2-((5-methyl-1,2,4-oxadiazol-3-yl)methoxy)-4-((2-methyl-[1,1′-biphenyl]-3-yl)methoxy)benzyl)amino)ethyl)acetamide], the IC50 (value given as range class) is 0.1 to 20 µM.

`Cc1c(COc2cc(OCc3cncc(C#N)c3)c(CN3CCCC[C@H]3C(=O)NS(=O)(=O)N3CCN(C)CC3)cc2Cl)cccc1-c1ccc2c(c1)OCCO2` [Example 1262, (S)-1-(5-chloro-2-((5-cyanopyridin-3-yl)methoxy)-4-((3-(2,3-dihydrobenzo[b][1,4]dioxin-6-yl)-2-methylbenzyl)oxy)benzyl)-N-((4-methylpiperazin-1-yl)sulfonyl)piperidine-2-carboxamide]: the IC50 (value given as range class) is 0.01 to 0.1 µM.

In the case of `Cc1cc(CN[C@@H](CO)C(=O)O)c(OCc2cccnc2)cc1OCc1cccc(-c2ccc3c(c2)OCCO3)c1C` [Example 1277, (S)-2-((4-((3-(2,3-dihydrobenzo[b][1,4]dioxin-6-yl)-2-methylbenzyl)oxy)-5-methyl-2-(pyridin-3-ylmethoxy)benzyl)amino)-3-hydroxypropanoic acid], the IC50 (value given as range class) was in the range of 0.0006 to 0.01 µM.

For `CSCC[C@H](NCc1cc(Cl)c(OCc2cccc(-c3ccc4c(c3)OCCO4)c2C)cc1OCc1cccc(C#N)c1)C(=O)O` [Example 1202, (S)-2-((5-chloro-2-((3-cyanobenzyl)oxy)-4-((3-(2,3-dihydrobenzo[b][1,4]dioxin-6-yl)-2-methylbenzyl)oxy)benzyl)amino)-4-(methylthio)butanoic acid], the IC50 (value given as range class) was in the range of 0.01 to 0.1 µM.

For the compound `CC(=O)NCCNCc1ccc(OCc2cccc(-c3ccccc3)c2C)cc1OCc1ccncn1` [Example 1100, N-(2-((4-((2-methyl-[1,1′-biphenyl]-3-yl)methoxy)-2-(pyrimidin-4-ylmethoxy)benzyl)amino)ethyl)acetamide], the 50% inhibitory concentration (IC50) (value given as range class) was 0.1 to 20 µM.

For `Cc1c(COc2cc(OCc3cccc(C#N)c3)c(CN[C@@H](Cc3cccc(C#N)c3)C(=O)O)cc2Cl)cccc1-c1ccc2c(c1)OCCO2` [Example 1217, (S)-2-((5-chloro-2-((3-cyanobenzyl)oxy)-4-((3-(2,3-dihydrobenzo[b][1,4]dioxin-6-yl)-2-methylbenzyl)oxy)benzyl)amino)-3-(3-cyanophenyl)propanoic acid], the IC50 (value given as range class) fell in the range of 0.01 to 0.1 µM.

In the case of `Cc1c(COc2cc(OCc3cccc(C#N)c3)c(CNC(C)(Cc3c[nH]cn3)C(=O)O)cc2Cl)cccc1-c1ccc2c(c1)OCCO2` (stereo not shown) [Example 1191, 2-((5-chloro-2-((3-cyanobenzyl)oxy)-4-((3-(2,3-dihydrobenzo[b][1,4]dioxin-6-yl)-2-methylbenzyl)oxy)benzyl)amino)-3-(1H-imidazol-4-yl)-2-methylpropanoic acid], the IC50 (value given as range class) is 0.0006 to 0.01 µM.

On to `Cc1c(COc2cc(OCc3cccc(C#N)c3)c(CN3CCOCC3C(=O)O)cc2Cl)cccc1-c1ccc2c(c1)OCCO2` (stereo not shown) [Example 1213, 4-(5-chloro-2-((3-cyanobenzyl)oxy)-4-((3-(2,3-dihydrobenzo[b][1,4]dioxin-6-yl)-2-methylbenzyl)oxy)benzyl)morpholine-3-carboxylic acid], for which, under “value given as range class”, the IC50 was in the range of 0.01 to 0.1 µM.

For `Cc1cc(CNC[C@@H](O)CC(=O)O)c(OCc2cccc(C#N)c2)cc1OCc1cccc(-c2ccc3c(c2)OCCO3)c1C` [Example 1265, (S)-4-((2-((3-cyanobenzyl)oxy)-4-((3-(2,3-dihydrobenzo[b][1,4]dioxin-6-yl)-2-methylbenzyl)oxy)-5-methylbenzyl)amino)-3-hydroxybutanoic acid], under “value given as range class”, the IC50 was in the range of 0.0006 to 0.01 µM.

On to `Cc1c(COc2cc(OCc3cccc(C#N)c3)c(CN3CCC[C@@H](C(=O)O)[C@H]3C(=O)O)cc2Cl)cccc1-c1ccc2c(c1)OCCO2` [Example 1190, (2S,3R)-1-(5-chloro-2-((3-cyanobenzyl)oxy)-4-((3-(2,3-dihydrobenzo[b][1,4]dioxin-6-yl)-2-methylbenzyl)oxy)benzyl)piperidine-2,3-dicarboxylic acid], for which, for the setting “value given as range class”, the IC50 was in the range of 0.0006 to 0.01 µM.

Take `CCOC(=O)c1cncc(COc2cc(OCc3cccc(-c4ccc5c(c4)OCCO5)c3C)c(Cl)cc2CN[C@@](C)(CO)C(=O)O)c1` [Example 2000, (S)-2-((5-chloro-4-((3-(2,3-dihydrobenzo[b][1,4]dioxin-6-yl)-2-methylbenzyl)oxy)-2-((5-(ethoxycarbonyl)pyridin-3-yl)methoxy)benzyl)amino)-3-hydroxy-2-methylpropanoic acid]: the IC50 (value given as range class) lay within 0.1 to 20 µM.

Regarding `Cc1c(COc2cc(OCc3cccc(C#N)c3)c(CN3CCSC[C@@H]3C(=O)O)cc2Cl)cccc1-c1ccc2c(c1)OCCO2` [Example 1222, (S)-4-(5-chloro-2-((3-cyanobenzyl)oxy)-4-((3-(2,3-dihydrobenzo[b][1,4]dioxin-6-yl)-2-methylbenzyl)oxy)benzyl)thiomorpholine-3-carboxylic acid], the IC50 (value given as range class) is 0.01 to 0.1 µM.

Consider `CC(=O)NCCNCc1ccc(OCc2cccc(-c3ccccc3)c2C)cc1OCc1ccc(C(=O)O)cc1` [Example 1043, 4-((2-(((2-acetamidoethyl)amino)methyl)-5-((2-methyl-[1,1′-biphenyl]-3-yl)methoxy)phenoxy)methyl)benzoic acid], for which the IC50 (numeric value) amounted to 0.239 µM.

For the compound `CC(=O)NCCNCc1ccc(OCc2cccc(-c3ccccc3)c2C)cc1OCc1ccc2ccccc2c1` [Example 1056, N-(2-((4-((2-methyl-[1,1′-biphenyl]-3-yl)methoxy)-2-(naphthalen-2-ylmethoxy)benzyl)amino)ethyl)acetamide], the IC50 (value given as range class) fell in the range of 0.1 to 20 µM.

Consider `Cc1c(COc2ccc(CNC[C@@H](O)CC(=O)O)c(OCc3cccc(C#N)c3)c2Cl)cccc1-c1ccc2c(c1)OCCO2` [Example 1240, (S)-4-((3-chloro-2-((3-cyanobenzyl)oxy)-4-((3-(2,3-dihydrobenzo[b][1,4]dioxin-6-yl)-2-methylbenzyl)oxy)benzyl)amino)-3-hydroxybutanoic acid], for which, under “value given as range class”, the IC50 fell in the range of 0.1 to 20 µM.

Consider `Cc1cc(CN2CCCC[C@H]2C(=O)O)c(OCc2cccnc2)cc1OCc1cccc(-c2ccc3c(c2)OCCO3)c1C` [Example 1279, (S)-1-(4-((3-(2,3-dihydrobenzo[b][1,4]dioxin-6-yl)-2-methylbenzyl)oxy)-5-methyl-2-(pyridin-3-ylmethoxy)benzyl)piperidine-2-carboxylic acid], for which the IC50 (value given as range class) lay within 0.0006 to 0.01 µM.

As for `Cc1c(COc2cc(OCc3cncc(C#N)c3)c(CNCCO)cc2Br)cccc1-c1ccc2c(c1)OCCO2` [Example 1322, 5-((4-bromo-5-(3-(2,3-dihydrobenzo[b][1,4]dioxin-6-yl)-2-methylbenzyloxy)-2-((2-hydroxyethylamino)methyl)phenoxy)methyl)nicotinonitrile], the IC50 (value given as range class) fell in the range of 0.0006 to 0.01 µM.

Take `Cc1c(COc2cc(OCc3cncc(C#N)c3)c(CN3CC[C@@H](O)C[C@H]3C(=O)O)cc2Cl)cccc1-c1ccc2c(c1)OCCO2` [Example 2008, (2S,4R)-1-(5-chloro-2-((5-cyanopyridin-3-yl)methoxy)-4-((3-(2,3-dihydrobenzo[b][1,4]dioxin-6-yl)-2-methylbenzyl)oxy)benzyl)-4-hydroxypiperidine-2-carboxylic acid]: where the note is “value given as range class”, the IC50 lay in the range of 0.0006 to 0.01 µM.

Consider `CC(=O)NCCNCc1ccc(OCc2cccc(-c3ccccc3)c2C)cc1OCc1cccc(C)c1` [Example 1025, N-(2-((4-((2-methyl-[1,1′-biphenyl]-3-yl)methoxy)-2-((3-methylbenzyl)oxy)benzyl)amino)ethyl)acetamide], for which the IC50 (value given as range class) fell in the range of 0.1 to 20 µM.

With `Cc1c(COc2cc(OCc3cncc(C#N)c3)c(CN[C@@H](Cc3ccncc3)C(=O)O)cc2Cl)cccc1-c1ccc2c(c1)OCCO2` [Example 2011, (S)-2-((5-chloro-2-((5-cyanopyridin-3-yl)methoxy)-4-((3-(2,3-dihydrobenzo[b][1,4]dioxin-6-yl)-2-methylbenzyl)oxy)benzyl)amino)-3-(pyridin-4-yl)propanoic acid], the half-maximal inhibitory concentration (IC50) (value given as range class) fell in the range of 0.01 to 0.1 µM.

The IC50 is the concentration needed to halve the response being measured.

For the origin of these results see patent publication US9850225B2, “Compounds useful as immunomodulators” (BRISTOL-MYERS SQUIBB COMPANY, priority 2014, dated 2017).
